Earlier results in patent US11491171B2, “Synthetic composition and method for modulating emotion and mood disorders” (GLYCOM A/S, priority 2015, dated 2022).

Tested on: mice

6′-O-sialyllactose [6′-SL]
behavioural responses during stressor exposure: support normal behavioural responses

CC(=O)N[C@H]1[C@H]([C@H](O)[C@H](O)CO)O[C@@](O[C@H]2[C@@H](O)[C@@H](CO)O[C@@H](O[C@H]3[C@H](O)[C@@H](O)C(O)O[C@@H]3CO)[C@@H]2O)(C(=O)O)C[C@@H]1O (some centres unmarked) [3′-SL, 3′-O-sialyllactose]
behavioural responses during stressor exposure: support normal behavioural responses
